Reference: paper PMC9403976, “Elucidating the path to Plasmodium prolyl-tRNA synthetase inhibitors that overcome halofuginone resistance” (Nature Communications, 2022)
Values joined by “and” are separate entries in the source; they are usually repeats but may differ in a detail not shown here. Identical values can stand only once. Like-named read-outs stand apart in the source and are kept apart here.

Columns and labels:
P. falciparum Dd2-2D4 = experiment: P. falciparum asexual blood stage (ABS) growth assay, SYBR Green, 72 h, wild-type parasites; type: cell-based, Plasmodium falciparum; conditions: wildtype (Dd2-2D4); 10 μM
HsProRS = HsProRS (Homo sapiens, UniProt P07814); experiment: TR-FRET ligand displacement assay with tracer MAT379 (CoraFluor-1-Halo and anti-His6 antibody formats); type: binding; parameters: made in house; host or cells: E. coli SoluBL-21; conditions: for TR-FRET dose-response, normalized signal (SI Fig 11): individual replicates
PfcProRS = target: T1, PfcProRS (Plasmodium falciparum, UniProt Q8I5R7); type: binding; conditions: for dose-response signal (normalized), SI Fig 8: single replicates
T1 construct: made in house; host or cells: E. coli SoluBL-21
T1 sequence (Q8I5R7 249-746): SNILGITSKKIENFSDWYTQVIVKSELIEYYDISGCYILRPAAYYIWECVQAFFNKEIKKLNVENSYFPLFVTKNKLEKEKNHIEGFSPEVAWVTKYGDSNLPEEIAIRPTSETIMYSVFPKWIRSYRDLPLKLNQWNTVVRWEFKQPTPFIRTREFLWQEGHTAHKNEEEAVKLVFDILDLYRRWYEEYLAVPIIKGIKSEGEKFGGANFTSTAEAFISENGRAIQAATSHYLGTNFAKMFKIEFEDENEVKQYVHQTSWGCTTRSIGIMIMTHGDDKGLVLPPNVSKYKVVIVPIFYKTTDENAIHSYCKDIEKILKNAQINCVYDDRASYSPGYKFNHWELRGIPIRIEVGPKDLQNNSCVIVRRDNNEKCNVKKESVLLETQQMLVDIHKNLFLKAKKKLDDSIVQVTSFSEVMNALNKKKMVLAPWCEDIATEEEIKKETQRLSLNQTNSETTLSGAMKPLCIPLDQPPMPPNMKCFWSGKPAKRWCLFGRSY

HsProRS, sequence (P07814 996-1512): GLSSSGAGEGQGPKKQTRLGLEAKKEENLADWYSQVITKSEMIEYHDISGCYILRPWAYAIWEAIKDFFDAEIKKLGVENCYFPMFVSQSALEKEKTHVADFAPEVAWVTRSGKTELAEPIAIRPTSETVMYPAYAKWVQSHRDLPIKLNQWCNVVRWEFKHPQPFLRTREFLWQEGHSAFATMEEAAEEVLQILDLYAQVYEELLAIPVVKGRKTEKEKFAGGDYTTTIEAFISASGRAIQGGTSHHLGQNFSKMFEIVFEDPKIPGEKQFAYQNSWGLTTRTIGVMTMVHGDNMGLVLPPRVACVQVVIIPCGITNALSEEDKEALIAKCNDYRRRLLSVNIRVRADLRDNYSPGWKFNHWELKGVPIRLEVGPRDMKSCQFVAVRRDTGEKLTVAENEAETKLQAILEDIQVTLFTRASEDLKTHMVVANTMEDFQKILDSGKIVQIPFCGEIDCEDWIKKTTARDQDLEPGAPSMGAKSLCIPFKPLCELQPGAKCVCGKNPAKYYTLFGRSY

For `C[C@@H]1CCC[C@H](C)N1C(=O)Nc1nccnc1C(=O)NC1Cc2ccccc2C1` [compound 19], the “% signal at 10 μM, wildtype (Dd2-2D4)” value (P. falciparum Dd2-2D4) was 67.3%, the IC50 (HsProRS) was greater than 10000 nM and the Kd (HsProRS; HsProRS (KD [nM]) + 100 μM proline mean, + 100 μM proline) was 1320 nM. The “normalized TR-FRET ligand displacement signal, dose-response replicates (SI Fig 6)” value (HsProRS; Log[inhibitor] (M) -5.000) was 6.53E-01 and 6.39E-01 and 5.91E-01, the “TR-FRET dose-response, normalized signal (SI Fig 11)” value (HsProRS; Log[inhibitor] (M) -5.000) was 8.15E-01 and 7.82E-01 and 8.24E-01 and the “normalized TR-FRET ligand displacement signal, dose-response replicates (SI Fig 6)” value (HsProRS; Log[inhibitor] (M) -5.301) was 8.82E-01 and 7.60E-01 and 7.73E-01. For the same compound, the “TR-FRET dose-response, normalized signal (SI Fig 11)” value (HsProRS; Log[inhibitor] (M) -5.301) was 9.03E-01 and 8.79E-01 and 9.19E-01, the “normalized TR-FRET ligand displacement signal, dose-response replicates (SI Fig 6)” value (HsProRS; Log[inhibitor] (M) -5.601) was 8.80E-01 (2×) and 8.74E-01 and the “TR-FRET dose-response, normalized signal (SI Fig 11)” value (HsProRS; Log[inhibitor] (M) -5.602) was 9.30E-01 and 1.01E+00 and 9.11E-01. The “normalized TR-FRET ligand displacement signal, dose-response replicates (SI Fig 6)” value (HsProRS; Log[inhibitor] (M) -5.904) was 9.78E-01 and 8.58E-01 and 8.56E-01, the “TR-FRET dose-response, normalized signal (SI Fig 11)” value (HsProRS; Log[inhibitor] (M) -5.904) was 9.97E-01 and 1.07E+00 and 9.73E-01 and the “TR-FRET dose-response, normalized signal (SI Fig 11)” value (HsProRS; Log[inhibitor] (M) -6.205) was 1.07E+00 and 9.89E-01 and 1.03E+00. For the same compound, the “normalized TR-FRET ligand displacement signal, dose-response replicates (SI Fig 6)” value (HsProRS; Log[inhibitor] (M) -6.208) was 1.01E+00 and 9.70E-01 and 9.45E-01, the “TR-FRET dose-response, normalized signal (SI Fig 11)” value (HsProRS; Log[inhibitor] (M) -6.506) was 1.02E+00 and 1.05E+00 and 9.88E-01 and the “normalized TR-FRET ligand displacement signal, dose-response replicates (SI Fig 6)” value (HsProRS; Log[inhibitor] (M) -6.509) was 9.25E-01 and 1.05E+00 and 8.66E-01. For the same compound, the “normalized TR-FRET ligand displacement signal, dose-response replicates (SI Fig 6)” value (HsProRS; Log[inhibitor] (M) -6.796) was 1.10E+00 and 9.97E-01 and 1.01E+00, the “TR-FRET dose-response, normalized signal (SI Fig 11)” value (HsProRS; Log[inhibitor] (M) -6.796) was 9.68E-01 and 1.04E+00 and 9.56E-01 and the “TR-FRET dose-response, normalized signal (SI Fig 11)” value (HsProRS; Log[inhibitor] (M) -7.097) was 1.08E+00 (2×) and 9.97E-01. The “normalized TR-FRET ligand displacement signal, dose-response replicates (SI Fig 6)” value (HsProRS; Log[inhibitor] (M) -7.108) was 1.04E+00 (2×) and 1.01E+00, the “TR-FRET dose-response, normalized signal (SI Fig 11)” value (HsProRS; Log[inhibitor] (M) -7.407) was 1.09E+00 and 9.94E-01 and 1.12E+00 and the “normalized TR-FRET ligand displacement signal, dose-response replicates (SI Fig 6)” value (HsProRS; Log[inhibitor] (M) -7.409) was 9.88E-01 and 9.12E-01 and 1.00E+00. The “TR-FRET dose-response, normalized signal (SI Fig 11)” value (HsProRS; Log[inhibitor] (M) -7.708) was 1.07E+00 and 1.00E+00 and 1.08E+00, the “normalized TR-FRET ligand displacement signal, dose-response replicates (SI Fig 6)” value (HsProRS; Log[inhibitor] (M) -7.710) was 9.99E-01 and 1.02E+00 and 9.53E-01 and the “normalized TR-FRET ligand displacement signal, dose-response replicates (SI Fig 6)” value (HsProRS; Log[inhibitor] (M) -8.000) was 9.74E-01 and 8.92E-01 and 8.64E-01. For the same compound, the “TR-FRET dose-response, normalized signal (SI Fig 11)” value (HsProRS; Log[inhibitor] (M) -8.018) was 1.06E+00 and 1.03E+00 and 1.01E+00, the “normalized TR-FRET ligand displacement signal, dose-response replicates (SI Fig 6)” value (HsProRS; Log[inhibitor] (M) -8.301) was 9.68E-01 and 9.13E-01 and 9.38E-01 and the “TR-FRET dose-response, normalized signal (SI Fig 11)” value (HsProRS; Log[inhibitor] (M) -8.319) was 9.44E-01 and 9.92E-01 and 9.43E-01. For the same compound, the “normalized TR-FRET ligand displacement signal, dose-response replicates (SI Fig 6)” value (HsProRS; Log[inhibitor] (M) -8.602) was 9.46E-01 and 9.29E-01 and 1.00E+00, the “TR-FRET dose-response, normalized signal (SI Fig 11)” value (HsProRS; Log[inhibitor] (M) -8.620) was 1.03E+00 and 1.01E+00 and 7.25E-01 and the “TR-FRET dose-response, normalized signal (SI Fig 11)” value (HsProRS; Log[inhibitor] (M) -8.921) was 1.02E+00 and 9.26E-01 and 9.67E-01. The “normalized TR-FRET ligand displacement signal, dose-response replicates (SI Fig 6)” value (HsProRS; Log[inhibitor] (M) -9.000) was 9.21E-01 and 9.72E-01 and 9.38E-01, the “TR-FRET dose-response, normalized signal (SI Fig 11)” value (HsProRS; Log[inhibitor] (M) -9.097) was 9.79E-01 and 1.10E+00 and 1.04E+00 and the “normalized TR-FRET ligand displacement signal, dose-response replicates (SI Fig 6)” value (HsProRS; Log[inhibitor] (M) -9.301) was 8.73E-01 and 8.54E-01 and 9.42E-01. The “HsProRS % signal at 10 μM” value (HsProRS; no added proline/ATP (-), 10 μM) was 80.7%, the “dose-response signal (normalized), SI Fig 8” value (PfcProRS; Log[inhibitor] (M) -5.000) was 3.96E-01 and 1.71E-01 and 2.62E-01 and the “dose-response signal (normalized), SI Fig 8” value (PfcProRS; Log[inhibitor] (M) -5.301) was 5.52E-01 and 5.02E-01 and 5.09E-01. For the same compound, the “dose-response signal (normalized), SI Fig 8” value (PfcProRS; Log[inhibitor] (M) -5.601) was 8.00E-01 and 7.91E-01 and 8.42E-01, the “dose-response signal (normalized), SI Fig 8” value (PfcProRS; Log[inhibitor] (M) -5.904) was 7.54E-01 and 9.47E-01 and 8.47E-01 and the “dose-response signal (normalized), SI Fig 8” value (PfcProRS; Log[inhibitor] (M) -6.208) was 1.02E+00 and 9.13E-01 and 1.08E+00. For the same compound, the “dose-response signal (normalized), SI Fig 8” value (PfcProRS; Log[inhibitor] (M) -6.509) was 9.59E-01 and 1.03E+00 and 9.76E-01, the “dose-response signal (normalized), SI Fig 8” value (PfcProRS; Log[inhibitor] (M) -6.796) was 1.09E+00 and 1.00E+00 and 1.08E+00 and the “dose-response signal (normalized), SI Fig 8” value (PfcProRS; Log[inhibitor] (M) -7.108) was 9.66E-01 and 9.00E-01 and 9.04E-01. For the same compound, the “dose-response signal (normalized), SI Fig 8” value (PfcProRS; Log[inhibitor] (M) -7.409) was 9.53E-01 and 1.01E+00 and 9.35E-01, the “dose-response signal (normalized), SI Fig 8” value (PfcProRS; Log[inhibitor] (M) -7.710) was 1.09E+00 and 9.53E-01 and 1.01E+00 and the “dose-response signal (normalized), SI Fig 8” value (PfcProRS; Log[inhibitor] (M) -8.000) was 1.12E+00 and 1.07E+00 and 9.69E-01. The “dose-response signal (normalized), SI Fig 8” value (PfcProRS; Log[inhibitor] (M) -8.301) was 1.02E+00 (2×) and 1.14E+00, the “dose-response signal (normalized), SI Fig 8” value (PfcProRS; Log[inhibitor] (M) -8.602) was 1.07E+00 and 8.94E-01 and 1.04E+00 and the “dose-response signal (normalized), SI Fig 8” value (PfcProRS; Log[inhibitor] (M) -9.000) was 1.15E+00 and 8.96E-01 and 9.87E-01. For the same compound, the “dose-response signal (normalized), SI Fig 8” value (PfcProRS; Log[inhibitor] (M) -9.301) was 8.48E-01 and 9.64E-01 and 1.02E+00 and the “PfcProRS -- best Kd” value (PfcProRS; SI Fig 16a, values on -log scale) was 5.928.
